Laboratory results published in patent US20260272868A1 (priority 2022, published 2026).

Key:
[1] = DOPR pharmacokinetics after SC administration; conditions: mouse, in vivo
[2] = test system: head twitch response (HTR); assay type: in vivo, mice; conditions: SC; higher and lower doses result in fewer HTRs
Procedure: Male C57BL/6 mice (~7-9 weeks old) were used in these studies. Mice were housed 2 per cage under standard temperature- and humidity-controlled laboratory conditions with a 12-hour light/dark cycle. Mice had free access to food and water.
Both compounds were dissolved in saline vehicle at a dose volume of 10 mL/kg. Doses were corrected for salt form so that the dose administered represented free base.
Mice were randomly assigned to 1 of 6 treatment groups consisting of 2 subcutaneous injections (see Table 1), which were administered according to the schedule in FIG. 1. […] Behavior was videotaped by a camera (GoPro Hero 9) mounted above the testing chambers. Recorded video was uploaded for analysis of head twitch behavior. Number of head twitch responses (HTRs) was recorded for each animal for each 2-min bin. For each treatment group, the mean number of HTRs in each 2- or 10-min bin, and across the whole 30-min recording period, were analyzed.

5-HT2A receptor = molecular target: T1, 5-HT2A receptor (Mus musculus, UniProt P35363); assay: Ex vivo occupancy of cortical 5-HT2A receptors by DOPR, [3H]MDL100,907 autoradiography; assay type: in vivo, mice; conditions: for receptor occupancy at 0.32 mg/kg / receptor occupancy at 1 mg/kg / receptor occupancy at 3.2 mg/kg / receptor occupancy at 32 mg/kg: mouse, sc
T1 construct: Coronal sections containing the frontal cortex were be cut (20 μm thick) using a cryostat; from tissue; host or cells: frontal cortex sections of male C57BL/6 mouse brain
T1 sequence (P35363 whole entry): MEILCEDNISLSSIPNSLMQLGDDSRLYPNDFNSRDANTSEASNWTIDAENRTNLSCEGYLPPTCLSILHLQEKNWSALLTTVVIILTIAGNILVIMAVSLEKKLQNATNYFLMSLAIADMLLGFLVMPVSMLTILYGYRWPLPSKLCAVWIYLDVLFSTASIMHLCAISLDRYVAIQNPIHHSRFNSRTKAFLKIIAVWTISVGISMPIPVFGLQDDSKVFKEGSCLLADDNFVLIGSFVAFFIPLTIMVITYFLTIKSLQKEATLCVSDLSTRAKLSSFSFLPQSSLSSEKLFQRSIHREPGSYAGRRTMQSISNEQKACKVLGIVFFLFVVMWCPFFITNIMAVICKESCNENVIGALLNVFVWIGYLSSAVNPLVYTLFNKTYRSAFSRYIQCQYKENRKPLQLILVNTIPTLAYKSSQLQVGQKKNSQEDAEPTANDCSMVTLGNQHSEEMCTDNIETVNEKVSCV
Procedure: Mice had free access to food and water. Animals were randomly assigned to treatment groups.
Doses were calculated based on the HCl salt. MDL100,907 [methyl-^3H] was purchased from Novandi Chemistry. Ketanserin was purchased from Tocris (UK).
Mice were dosed with vehicle or DOPR (0.32, 1, 3.2, or 32 mg/kg, SC) and sacrificed at 15 or 60 minutes after dosing (n=5 per dose/time condition) by a rising CO2 concentration followed by cervical dislocation. Whole brains were removed, rinsed briefly with saline, and blot dried. A coronal cut was made at the level of the optic chiasm to produce an anterior brain block containing the frontal cortex (according to the Mouse Brain in Stereotaxic Coordinates, Paxinos and Franklin, second edition). The anterior brain block was then cut down the midline, both blocks were placed onto cork disks, covered with OCT embedding matrix (KMA-0100-00A, Cell Path), rapidly frozen in isopentane (cooled to −20/−30° C.) and stored at −20° C. for sectioning and ex vivo autoradiography. Coronal sections containing the frontal cortex were be cut (20 μm thick) using a cryostat and thaw mounted onto Superfrost plus slides and the slides were stored at −20° C. until the day of assay.
Slides containing brain sections were warmed to room temperature and sections were isolated using a DAKO pen and incubated at room temperature for 30 minutes in 200 μL of assay buffer containing 0.2 nM [^3H]MDL100,907 (total binding) or 0.2 nM [^3H]MDL100,907 and […] ketanserin (non-specific binding). Solutions were removed from the sections by aspiration and the slides were washed for two consecutive 5-minute periods in ice-cold wash buffer. The slides were then rinsed briefly in ice-cold distilled water to remove buffer salts and allowed to air dry. The assay and wash buffer consisted of 50 mM Tris, pH 7.4. The binding assay was performed on two separate occasions.
The waxy residue of the DAKO pen was removed with xylene to prevent sparks in the β-imager. Lint-free tissue and an air duster was used to remove any dust particles from the microscope slides. To make the slides conductive, copper foil tape was adhered to the free side of the microscope slides. The slides were placed in the β-imager and the levels of bound radioactivity in the sections were directly determined by counting the number of β-particles emerging from the delineated area using the M3 vision program (BioSpace). Data was collected from the brain sections over 16 hours and expressed in counts per minute per square millimetre (cpm/mm^2). A value for specific binding (cpm/mm^2) was generated by the subtraction of mean non-specific binding (cpm/mm^2) from mean total binding (cpm/mm^2) for each animal.

**Q.** Which results are given for `CCCc1cc(OC)c(CC(C)N)cc1OC` (stereo not drawn) [DOPR, 2,5-dimethoxy-4-propylamphetamine]?
**A.** Tmax [1]: 1 h; dose maximally efficacious for induction of HTR [2]: 3.2 mg/kg; Specific Binding (% of Vehicle) (5-HT2A receptor; DOPR 0.32 mg/kg SC, 15 min): 105 % of Vehicle; Specific binding, Mean (SEM) (5-HT2A receptor; DOPR 0.32 mg/kg SC, 15 min): 1.39 (0.06) cpm/mm^2; Specific Binding (% of Vehicle) (5-HT2A receptor; DOPR 0.32 mg/kg SC, 60 min): 93 % of Vehicle; Specific binding, Mean (SEM) (5-HT2A receptor; DOPR 0.32 mg/kg SC, 60 min): 1.23 (0.08) cpm/mm^2; Specific Binding (% of Vehicle) (5-HT2A receptor; DOPR 1 mg/kg SC, 15 min): 104 % of Vehicle; Specific binding, Mean (SEM) (5-HT2A receptor; DOPR 1 mg/kg SC, 15 min): 1.38 (0.06) cpm/mm^2; Specific Binding (% of Vehicle) (5-HT2A receptor; DOPR 1 mg/kg SC, 60 min): 67 % of Vehicle; Specific binding, Mean (SEM) (5-HT2A receptor; DOPR 1 mg/kg SC, 60 min): 0.88 (0.07) cpm/mm^2; Specific Binding (% of Vehicle) (5-HT2A receptor; DOPR 3.2 mg/kg SC, 15 min): 71 % of Vehicle; Specific binding, Mean (SEM) (5-HT2A receptor; DOPR 3.2 mg/kg SC, 15 min): 0.93 (0.09) cpm/mm^2; Specific Binding (% of Vehicle) (5-HT2A receptor; DOPR 3.2 mg/kg SC, 60 min): 43 % of Vehicle; Specific binding, Mean (SEM) (5-HT2A receptor; DOPR 3.2 mg/kg SC, 60 min): 0.57 (0.05) cpm/mm^2; Specific Binding (% of Vehicle) (5-HT2A receptor; DOPR 32 mg/kg SC, 15 min): 18 % of Vehicle; Specific binding, Mean (SEM) (5-HT2A receptor; DOPR 32 mg/kg SC, 15 min): 0.23 (0.04) cpm/mm^2; Specific Binding (% of Vehicle) (5-HT2A receptor; DOPR 32 mg/kg SC, 60 min): 8 % of Vehicle; Specific binding, Mean (SEM) (5-HT2A receptor; DOPR 32 mg/kg SC, 60 min): 0.10 (0.01) cpm/mm^2; dose calculated to occupy 50% of 5-HT2A receptors (5-HT2A receptor; SC, mice): 2.08 mg/kg; receptor occupancy at 0.32 mg/kg (5-HT2A receptor; DOPR 0.32 mg/kg SC, 15 min): -5%; receptor occupancy at 0.32 mg/kg (5-HT2A receptor; DOPR 0.32 mg/kg SC, 60 min): 7%; receptor occupancy at 1 mg/kg (5-HT2A receptor; DOPR 1 mg/kg SC, 15 min): -4%; receptor occupancy at 1 mg/kg (5-HT2A receptor; DOPR 1 mg/kg SC, 60 min): 33%; receptor occupancy at 3.2 mg/kg (5-HT2A receptor; DOPR 3.2 mg/kg SC, 15 min): 29%; receptor occupancy at 3.2 mg/kg (5-HT2A receptor; DOPR 3.2 mg/kg SC, 60 min): 57%; receptor occupancy at 32 mg/kg (5-HT2A receptor; DOPR 32 mg/kg SC, 15 min): 82%; receptor occupancy at 32 mg/kg (5-HT2A receptor; DOPR 32 mg/kg SC, 60 min): 92%
